Experiments:
rats [1] = experiment: Prepulse inhibition experiment (MK-801-induced deficit); type: in vivo, rat; settings: 3 mg/kg P.O., MK-801 0.1 mg/kg SC, MK-801 plus vehicle control about 18%
Method: Rats were placed on a platform in a sound attenuating chamber (10.875″×14″×19.5″; Hamilton Kinder, Calif.) that rested on a motion sensing plate. During all sessions, the background noise was held constant at 60 dB. A matching session was conducted to determine the magnitude of the average startle response for each rat. This session consisted of a five minute habituation period followed by 20 trials; 17 trials involved the presentation of a single auditory stimulus (pulse stimulus; 50 dB above the background noise) and three trials in which a pre-pulse stimulus (12 db above background) was presented 100 ms before the pulse auditory stimulus. Rats were then assigned into the various treatment groups so that the magnitude of the startle response was equivalent across all groups. Two days later, a testing session was conducted to assess sensorimotor gating. One hour prior to testing, rats received a prodrug (0-100 mg/kg, P.O.) and 55 minutes later acute MK-801 maleate (0.1 mg/kg, SC). […] All startle responses were normalized to vehicle control, and the percent of prepulse inhibition was determined as 100−(average prepulse startle response/average startle stimulus alone)*100.

rats [2] = experiment: Elevated-plus maze; type: in vivo, rat
Method: Rats were tested in a standard elevated plus maze; testing occurred in a dimly illuminated room using only two lights mounted over the maze. Animals were allowed to habituate to the room for at least one hour prior to treatment. One hour prior to testing, rats received a Pro-4001 (0-30 mg/kg, P.O.). For testing, the rat was placed in the elevated plus maze for five minutes, alternating the starting position between facing an open arm and facing a closed arm. The session was recorded and an observer blind to treatment recorded the number of explorations, entries and time spent in the open arm. Explorations were defined as the rat placing two feet into an open arm without fully entering said arm. Entries were defined as the rat placing all four feet in an open arm. Time of entry in the open arm was recorded from the time the rat placed four feet in the open arm until two of the rats' feet entered the open square.

[3] = test system: human glial cells from brain astrocytoma (1321N1); experiment: 14C-cystine uptake in human glial cell culture; type: cell-based; settings: 100 μM (most effective concentration); relative to untreated control; 1321N1 cells; three hour incubation
Method: The screening of the compound was performed using an in vitro culture system of human glial cells from brain astrocytoma (1321N1). Cells were plated on 24 well plates coated with poly-D-lysine and laminin and grown in a balanced salt solution supplemented with 5% heat inactivated horse serum, 5% fetal bovine serum, 2 mM glutamine and glucose (total 21 mM). Cultures were maintained in humidified 5% CO2 incubators at 37° C. for 3-4 days before experiments were performed, at this time the cultures has formed a single confluent layer. For experiments, cultures are washed 3 times into a Na-free HEPES and HCO3^− buffered balanced salt solution. After 1 hour, the test compounds are added. Following a three hour incubation, ^14C-cystine (0.025 mCi/mL) was then added for 20 minutes. Following the ^14C-cystine exposure, cultures were washed 3 times with ice cold HEPES buffered saline solution and dissolved in 250 μl sodium dodecyl sulfate (0.1%). An aliquot (200 μl) was removed and added to scintillation fluid for counting. Values were normalized to ^14C-cystine uptake in untreated controls on the same experimental plate.

[4] = test system: mixed cortical cell cultures containing glial and neuronal cells; experiment: In vitro thiol experiment: intracellular cysteine levels; type: cell-based, mice; settings: 100 μM
Method: Mixed cortical cell cultures containing glial and neuronal cells were prepared from fetal (15-16 day gestation) mice as previously described. Lobner D, Comparison of the LDH and MTT assays for quantifying cell death: validity for neuronal apoptosis?, J Neurosci Methods, 2000, Mar. 15, 96(2), 147-152). Dissociated cortical cells were plated on 24-well plates coated with poly-D-lysine and laminin in Eagles' Minimal Essential Medium (MEM, Earle's salts, supplied glutamine-free) supplemented with 5% heat-inactivated horse serum, 5% fetal bovine serum, 2 mM glutamine and glucose (total 21 mM). Cultures were maintained in humidified 5% CO2 incubators at 37° C. […]
Samples were then sonicated with a Fisher Scientific 60 Sonic Dismembrator. One fraction of this homogenate was analyzed with the Pierce BCA (bicinchoninic acid) method to determine protein concentration. The other fraction was filtered using 3 K molecular weight cutoff, polyethersulfone centrifugal protein filters, and analyzed for thiol content using high-performance liquid chromatography (ALF-115 column, 150×1.0 mm, 3 μm C18; mobile phase: 50 mM citric acid, 10 mM octanesulfonic acid, 2% acetonitrile, pH 2.8, 50 uL/min flow rate) with electrochemical detection (Decade II, Au working electrode, Flex Cell HyREF, 0.55V, Antec Leyden, Netherlands).

[5] = test system: human glial cells from brain astrocytoma (1321N1); experiment: 3H-glutamate release from human glial cell culture; type: cell-based; settings: at 3 hours; 100 μM; relative to untreated control; 1321N1 cells
Method: This assay also uses the cell culture system of human glial cells from brain astrocytoma (1321N1) described above. Initially, cells are washed, and ^3H-glutamate is added (PerkinElmer: 1 mCi/mL stock solution is diluted (30 μL+500 μL HBBSS) and 10 μL of diluted radiolabel is added to each well). Following a 1 hour incubation to load the cells with the labeled glutamate, the cells are washed again with HBBSS, and the drug is added. At 30, 90, and 180 minutes, 50 μL of extracellular media is sampled from each well and is measured using a Beckman LS 6500 scintillation counter.

SMILES: CCOC(=O)[C@H](CSC(=O)[C@@H](N)C(C)C)NC(C)=O.Cl [Pro-4001, ethyl (2R)-3-{[(2S)-2-amino-3-methylbutanoyl]sulfanyl}-2-acetamido-propanoate hydrochloride]
- % prepulse inhibition (rats [1]): about 27%
- increase of time spent on the open arm (rats [2]; 10 mg/kg PO): 50%
- time spent on the open arms (rats [2]; 10 mg/kg PO): around 21 seconds
- increase of time spent on the open arm (rats [2]; 30 mg/kg PO): 64%
- time spent on the open arms (rats [2]; 30 mg/kg PO): around 25 seconds
- decrease in 14C-cystine uptake [3]: 50%
- intracellular cysteine concentration [4]: 0.78 µM
- intracellular cysteine concentration, times the control value [4]: approximately 5 times
- increase in 3H-glutamate release [5]: 175%

From patent US9193681B1, “Propionic acids, propionic acid esters, and related compounds” (Promentis Pharmaceuticals, Inc., priority 2014, dated 2015)
